These results are taken from patent US6238875A, “Diagnostic methods useful in the characterization of lymphoproliferative disease characterized by increased EPR-1” (The Scripps Research Institute, priority 1994, dated 2001).

In the experiment the test system is T lymphocytes. The experiment in a line: Intracellular Ca2+ signalling in single adherent T lymphocytes loaded with Indo-1 (real-time fluorescence). The note with it: 7 μM ionomycin; Indo-1-loaded T cells; data not shown. It counts as cell-based, human. The protocol: Early events of intracellular Ca^2+ signalling after EPR-1 occupancy were characterized in real-time fluorescence measurements at the single cell level (Altieri, et al., Biochem. J. 288: 465 (1992)). Freshly isolated T lymphocytes were attached onto Cell-Tak-(Biopolymers, Farmington, Conn.)-coated optical grade glass coverslips (22 mm^2 diameter and <[…] thickness), and loaded intracellularly with 1 μM of the Ca^2+ -sensitive fluorescent dye Indo-1/AM (Grynkiewicz, et al., J. Biol. Chem. 260: 3440 (1985)) (Calbiochem) in 145 mM NaCl, 5 mM KCl, 1 mM Na2 HPO4, 2.5 mM CaCl2, 10 mM glucose, 25 mM HEPES, 0.5 mM MgSO4 for 45 minutes at 37° C. Cells were gently washed in the same loading buffer, and analyzed in real time fluorescence measurements in digitalized imaging using the interactive laser cytometer ACAS 470, as described (Altieri, et al., Id. (1992)). […] After 125 seconds from the addition of the primary mAb, 50 μg/ml aliquots of goat anti-mouse F(ab')2 fragments were added as a cross-linking reagent, and fluorescence changes in the target cells were monitored continuously during a 3-minute interval. Changes in cytosolic free [Ca^2+ ]i under the various conditions tested are expressed as ratio of Detector 1 (free Indo-1, 485 nm wavelength)/Detector 2 (Indo-1:Ca^2+ complex, 405 nm wavelength).

With `C[C@H](CCC(=O)O)C[C@H](C)C[C@H](C)C(=O)/C=C(\O)[C@H](C)C[C@H](C)C/C=C/[C@@H](C)[C@@H](O)[C@@H](C)[C@@H](O)C[C@@H]1CC[C@@](C)([C@H]2CC[C@@](C)([C@@H](C)O)O2)O1` [ionomycin], the “cytosolic free [Ca2+]i response” value is “large and sustained increase”.
